According to patent publication US12624004B2 (Fudan University, priority 2019, dated 2026):
Where a name gives a salt, the structure may show the parent alone. Read-outs that look alike come from different tables or passages of the source.

Key:
μ opioid receptor = molecular target: T1, μ opioid receptor (Homo sapiens, UniProt P35372); test: Competition binding assay on membranes of CHO cells expressing μ opioid receptor, [3H]-labeled ligand; conditions: for Ki: read-out: μOR Ki
T1 construct: expressed in transfected cells; host or cells: CHO cells (membranes)
Description: (§1) CHO cells expressing p opioid receptor, δ opioid receptor and κ opioid receptor were cultured in 10 cm^2 culture dishes (F-12 medium+10% neonatal bovine serum) for several days, and the culture fluid was aspirated after the cells had grown to the bottom of the dishes; 3 ml of PBS/EDTA solution (0.1M NaCl, 0.01M NaH2PO4, 0.04% EDTA) was added to digest the cells for 3-5 min. Add ice-cold homogenate (50 mM HEPES PH 7.4, 3 mM MgCl, 1 mM EGTA) to the centrifuge tube, transfer the solution and sediment to a homogenizer and homogenize; then transfer the homogenate to a centrifuge tube and centrifuge at 18000 rpm. Centrifuge for 15 min, two times; the obtained precipitate was homogenized with appropriate amount of 50 mM Tris-HCl, pH 7.4 buffer and divided into centrifuge tubes and stored at −70° C. in the refrigerator until use.
(§2) The total binding tube was spiked with 20-30 μg of the expressed membrane receptor protein and […] ligand (1-2 nM), the corresponding non-specific binding tube was spiked with 1 μM of the corresponding ligand, and the sample tubes were spiked with various screened opioid ligands in a final volume of […], incubated at 30° C. for 30 min, and the reaction was terminated in ice water. […] The samples were filtered under negative pressure through GF/C (whatman) glass fiber filter paper on a Millipore sample collector. The reaction was rinsed three times with 4 ml of 50 mMV Tris-HCl (pH 7.4), the filter paper was dried and placed in 0.5 ml Eppendorf tubes with 0.5 ml of lipophilic scintillation solution, the radioactivity was measured by PERKIN ELMER PRI-CARB 2910 liquid scintillation counter and the inhibition rate was calculated. Inhibition rate (or binding rate)=(total binding rate dpm−sample tube dpm)/(total binding tube dpm−non-specific binding tube dpm)×100%
(§3) IC50 was calculated using Prism 5.0 software. the Ki value was calculated as follows, Ki=IC50/(1+[IL]/Kd), [lL] is the concentration of the added labeled ligand and Kd is the equilibrium dissociation parameter of the labeled ligand.
(§4) CHO cells expressing p opioid receptor, δ opioid receptor and κ opioid receptor were cultured in a 10 cm^2 culture dish (F-12 medium+10% neonatal bovine serum) for several days, and the culture fluid was aspirated after the cells grew to the bottom of the dish. 3 mL PBS/EDTA solution (0.1 M NaCl, 0.01 M NaH2PO4, 0.04% EDTA) was added to digest the cells for 3˜5 min, blew with a pipette to completely dislodge the cells. The cells were collected in a 40 mL centrifuge tube, centrifuged at 5000 rpm for 5 min. The supernatant was removed and the ice-cold homogenate (50 mM HEPES pH 7.4, 3 mM MgCl2, 1 mM EGTA) was added to the centrifuge tube. The solution and the precipitate were transferred to a homogenizer. Then the homogenate was transferred to a centrifuge tube and centrifuged at 18000 rpm for 15 min. The precipitate was centrifuged twice at 18000 rpm for 15 min. The obtained precipitate was homogenized by adding appropriate amount of 50 mM Tris-HCl, pH 7.4 buffer and divided into centrifuge tubes and stored at −70° C. in the refrigerator until use.
(§5) The total binding tube was added with 20-30 μg of expressed membrane receptor protein and [3H]-labeled ligand (1-2 nM). The corresponding non-specific binding tube was added with 1 μM of the corresponding ligand, and the sample tubes were added with various screened opioid ligands in a final volume of 100 μL. All of them were incubated for 30 min at 30° C., and the reaction was terminated in ice water. The samples were filtered under negative pressure through GF/C (Whatman) glass fiber filter paper on a Millipore sample collector. The reaction was rinsed three times with 4 mL of 50 mM Tris-HCl (pH 7.4), the filter paper was dried and placed in 0.5 mL Eppendorf tubes with 0.5 mL of lipophilic scintillation solution. […]

δ opioid receptor = molecular target: T2, δ opioid receptor (Homo sapiens, UniProt P41143); test: Competition binding assay on membranes of CHO cells expressing δ opioid receptor, [3H]-labeled ligand; conditions: for Ki: read-out: δOR Ki; for inhibition at 1 µM: 0.5 h
T2 construct: expressed in transfected cells; host or cells: CHO cells (membranes)
Description: as §1, §2, §3, §4, §5

κ opioid receptor = molecular target: T3, κ opioid receptor (Homo sapiens, UniProt P41145); test: Competition binding assay on membranes of CHO cells expressing κ opioid receptor, [3H]-labeled ligand; conditions: for inhibition at 1 µM: 0.5 h; for Ki: read-out: κOR Ki
T3 construct: expressed in transfected cells; host or cells: CHO cells (membranes)
Description: as §1, §2, §3, §4, §5

Female mice = test: In vivo hot plate method analgesia test; conditions: intraperitoneal; for % MPE (5 mg/kg): Table 2-2, hot plate 55° C.; for Maximum percentage effective analgesia (% MPE): Table 5-2, hot plate 55° C.
Description: Female mice weighing about 20 g were placed on a hot plate apparatus preheated to 55° C., and the latency of the hindfoot response of the mice was used as the pain threshold indicator. Animals were screened before the experiment, and those with response latency less than 5 s or more than 30 s were excluded. To prevent foot scalding, the maximum observation time was set at 60 s. The basal pain threshold was the average of two measurements, with a 5-min interval between measurements. pain thresholds were measured at 15 m, 30 m, 60 m and 120 m after intraperitoneal injection in each group of mice. The percentage effective analgesia (% MPE) was calculated according to the following formula: percentage effective analgesia (% MPE) (post-dose latency−pre-dose latency)/(60−pre-dose latency)×100%. ED50 values were calculated based on the effective percentage of analgesia using the software Graphpad prism 5.0 software.
(§6) Female mice weighing about 20 g were placed on a hot plate apparatus preheated to 55° C., and the latency of the hindfoot response of the mice was used as the pain threshold indicator. Animals were selected before the experiment, and those with response latency less than 5 s or greater than 30 s were excluded. To prevent foot scalding, the maximum observation time was set at 60 s. The basal pain threshold was the average of two measurements, with a 5-min interval between measurements. pain thresholds were measured at 15 min, 30 min, 60 min and 120 min after intraperitoneal administration in each group of mice. The percentage of analgesic effectiveness (% MPE) was calculated according to the following equation. Percentage of effective analgesia (% MPE)_(Pre-dose incubation period−Incubation period after drug administration)/(60-Pre-dose incubation period)×100%. ED50 values were calculated based on the effective percentage of analgesia using GraphPad prism 5.0 software.
as §6, with “were screened” for “were selected”, “measurements. Pain” for “measurements. pain”, “following formula.” for “following equation. Percentage of effective analgesia (% MPE)_(Pre-dose incubation period−Incubation period after drug administration)/(60-Pre-dose incubation period)×100%. ED50 values were calculated based on the effective percentage of analgesia using GraphPad prism 5.0 software.”
ED50 values were calculated based on the effective percentage of analgesia using Graphpad Prism 5.0.
Female mice weighing about 20 g were placed on a hot plate apparatus preheated to 55° C., and the latency of the hindfoot response of the mice was used as the pain threshold indicator. Animals were screened before the experiment, and those with response latency less than 5 s or more than 30 s were excluded. To prevent foot scalding, the maximum observation time was set at 60 s. The basal pain threshold was the average of two measurements, with a 5-min interval between measurements. pain thresholds were measured at 15 min, 30 min, 60 min and 120 min after intraperitoneal administration in each group of mice. The analgesic effective percentage (% MPE) was calculated according to the following formula: analgesic effective percentage (% MPE)=(latency after drug administration−latency before drug administration)/(60−latency before drug administration)×100%. ED50 values were calculated based on the effective percentage of analgesia using the software Graphpad prism 5.0.
Female mice weighing about 20 g were placed on a hot plate apparatus preheated to 55° C. and the latency of the hindfoot response was used as an indicator of pain threshold. […]

[1] = Table 2-1, 1 μM concentration of compound, read-out: κOR Binding rate (%)
[2] = Table 2-1, 1 μM concentration of compound, read-out: δOR Binding rate (%)
[3] = Table 5-1, 1 μM concentration of compound, read-out: δOR Combination rate (%)
[4] = Table 5-1, 1 μM concentration of compound, read-out: κOR Combination rate (%)

`COc1cccc(C2(O)CCN(S(=O)(=O)Cc3ccc(F)cc3)CC2CN(C)C)c1.Cl` (centres unmarked) [FWBH12, 3-((Dimethylamino)methyl)-1-((4-fluorobenzyl)sulfonyl)-4-(3-methoxyphenyl)piperidin-4-ol hydrochloride] showed a Ki (μ opioid receptor; Table 2-1) of 39.2 ± 6.13 nM, a Ki (δ opioid receptor; Table 2-1) of 1110 ± 28.5 nM and an inhibition at 1 µM (κ opioid receptor; [1]) of 45.9 ± 2.11%. The “% MPE (5 mg/kg)” value (Female mice) was 332.92%.
`C=CCS(=O)(=O)N1CCC(O)(c2cccc(OC)c2)C(CN(C)C)C1.Cl` (centres unmarked) [FWBH21, 1-(Allylsulfonyl)-3-((dimethylamino)methyl)-4-(3-methoxyphenyl)piperidin-4-ol hydrochloride] showed a Ki (μ opioid receptor; Table 2-1) of 40.4 ± 4.99 nM, an inhibition at 1 µM (δ opioid receptor; [2]) of 31.52 ± 0.21% and an inhibition at 1 µM (κ opioid receptor; [1]) of 17.1%. The “% MPE (5 mg/kg)” value (Female mice) was 18.80%.
With `COc1cccc(C2(O)CCN(S(=O)(=O)Cc3cccc(Cl)c3)CC2CN(C)C)c1.Cl` (centres unmarked) [FWBH7, 1-((3-Chlorobenzyl)sulfonyl)-3-((dimethylamino)methyl)-4-(3-methoxyphenyl)piperidin-4-ol hydrochloride] the inhibition at 1 µM (μ opioid receptor; Table 2-1, 1 μM concentration of compound, read-out: μOR Binding rate (%)) was 21.9 ± 2.4%, the inhibition at 1 µM (δ opioid receptor; [2]) was 28.8 ± 0.04% and the inhibition at 1 µM (κ opioid receptor; [1]) was 0%. The ED50 (Female mice; Mus musculus, ip, Table 2-2, hot plate) was 1.58 mg/kg.
Work on `COc1cccc(C2(O)CCN(S(=O)(=O)c3ccccc3)CC2CN(C)C)c1.Cl` (centres unmarked) [FWBH16, 3-((Dimethylamino)methyl)-4-(3-methoxyphenyl)-1-(phenylsulfonyl)piperidin-4-ol hydrochloride] yielded a Ki (μ opioid receptor; Table 2-1) of 87.7 ± 9.37 nM, an inhibition at 1 µM (δ opioid receptor; [2]) of 40.5 ± 1.66% and an inhibition at 1 µM (κ opioid receptor; [1]) of 32.6 ± 0.55%. For the same compound, the “% MPE (5 mg/kg)” value (Female mice) was 100%.
`COc1cccc(C2(O)CCN(S(=O)(=O)C[C@]34CC[C@H](CC3=O)C4(C)C)CC2CN(C)C)c1` (stereo partly drawn) [FWBH25, (1S,4R)-1-(((3-((Dimethylamino)methyl)-4-hydroxy-4-(3-methoxyphenyl)piperidin-1-yl)sulfonyl)methyl)-7,7-dimethylbicyclo[2.2.1]heptan-2-one hydrochloride] was tested, and the Ki (μ opioid receptor; Table 2-1) was 50.8 ± 1.56 nM, the inhibition at 1 µM (δ opioid receptor; [2]) was 14.3 ± 8.63% and the Ki (κ opioid receptor; Table 2-1) was 54 ± 20.9 nM. The “% MPE (5 mg/kg)” value (Female mice) was 6.03%.
For `COc1cccc(C2(O)CCN(C(=O)Cc3cccs3)CC2CN(C)C)c1.Cl` (centres unmarked) [FWBE8, 1-(3-((Dimethylamino)methyl)-4-hydroxy-4-(3-methoxyphenyl)piperidin-1-yl)-2-(thiophen-2-yl)ethyl-1-one hydrochloride], the Ki (μ opioid receptor; Table 5-1) was 34.8 ± 1.1 nM, the inhibition at 1 µM (δ opioid receptor; [3]) was 18.7 ± 1.9% and the inhibition at 1 µM (κ opioid receptor; [4]) was 32.5 ± 4.4%. For the same compound, the “Maximum percentage effective analgesia (% MPE)” value (Female mice; 10 mg/kg dose) was 93.0%.
In the case of `COc1cccc(C2(O)CCN(C(=O)Cc3cccc(OC(F)(F)F)c3)CC2CN(C)C)c1.Cl` (centres unmarked) [FWBE6, 1-(3-((Dimethylamino)methyl)-4-hydroxy-4-(3-methoxyphenyl)piperidin-1-yl)-2-(3-(trifluoromethoxy)phenyl)ethyl-1-one hydrochloride], the inhibition at 1 µM (μ opioid receptor; 0.5 h, Table 5-1, 1 μM concentration of compound, read-out: μOR Combination rate (%)) is reported as 21.5 ± 0.1%, the inhibition at 1 µM (δ opioid receptor; [3]) is reported as 13.2 ± 1% and the inhibition at 1 µM (κ opioid receptor; [4]) is reported as 13.5 ± 0.6%. For the same compound, the “Maximum percentage effective analgesia (% MPE)” value (Female mice; 10 mg/kg dose) was 47%.
`COC(=O)c1ccsc1NC(=O)N1CCC(O)(c2cccc(OC)c2)C(CN(C)C)C1` (centres unmarked) [FWBF18, Methyl 2-(3-((dimethylamino)methyl)-4-hydroxy-4-(3-methoxyphenyl)piperidine-1-carboxamide) thiophene-3-carboxylate hydrochloride] was tested, and the inhibition at 1 µM (μ opioid receptor; Table 3-1, 1 μM concentration of compounds, read-out: μOR Binding rate (%)) was 2.3%, the inhibition at 1 µM (δ opioid receptor; Table 3-1, 1 μM concentration of compounds, read-out: δOR Binding rate (%)) was 16 ± 12.4% and the inhibition at 1 µM (κ opioid receptor; Table 3-1, 1 μM concentration of compounds, read-out: κOR Binding rate (%)) was 9.2 ± 3.1%. The “% MPE @ 10 mg/kg” value (Female mice; Table 3-2, hot plate 55° C., 10 mg/kg dose) was 22.76%.
`COc1cccc(C2(O)CCN(C(=O)Cc3ccc(Cl)c(Cl)c3)CC2CN(C)C)c1.Cl` (centres unmarked) [FWBE17, 2-(3,4-Dichlorophenyl)-1-(3-((dimethylamino)methyl)-4-hydroxy-4-(3-methoxyphenyl)piperidin-1-yl)ethyl-1-one hydrochloride] gave a Ki (μ opioid receptor; Table 5-1) of 69.2 ± 0.4 nM, a Ki (δ opioid receptor; Table 5-1) of 805 ± 173 nM and a Ki (κ opioid receptor; Table 5-1) of 288 ± 12.8 nM. For the same compound, the “Maximum percentage effective analgesia (% MPE)” value (Female mice; 10 mg/kg dose) was 70.66%.
With `COc1cccc(C2(O)CCN(S(C)(=O)=O)CC2CN(C)C)c1.Cl` (centres unmarked) [FWBH23, 3-((Dimethylamino)methyl)-4-(3-methoxyphenyl)-1-(methylsulfonyl)piperidin-4-ol hydrochloride] the Ki (μ opioid receptor; Table 2-1) was 192 ± 15 nM, the inhibition at 1 µM (δ opioid receptor; [2]) was 16 ± 1.99% and the inhibition at 1 µM (κ opioid receptor; [1]) was 14.3 ± 3.33%. The “% MPE (5 mg/kg)” value (Female mice) was 16.87%.
`COc1cccc(C2(O)CCN(C(=O)C(C)(C)c3ccccc3)CC2CN(C)C)c1.Cl` (centres unmarked) [FWBE23, 1-(3-((Dimethylamino)methyl)-4-hydroxy-4-(3-methoxyphenyl)piperidin-1-yl)-2-methyl-2-phenylpropan-1-one hydrochloride] gave a Ki (μ opioid receptor; Table 5-1) of 52.6 ± 3.83 nM, a Ki (δ opioid receptor; Table 5-1) of 688 ± 540 nM and a Ki (κ opioid receptor; Table 5-1) of 44.4 ± 0.96 nM. The “Maximum percentage effective analgesia (% MPE)” value (Female mice; 10 mg/kg dose) was 33.72%.
